Patent EP2929883A1, “Pyrazole derivatives as dihydroorotate dehydrogenase (DHODH) inhibitors” (INSTITUT PASTEUR, priority 2014, dated 2015)
≈ marks a conversion by molar mass, not a printed value.

What was measured:
Jurkat cells = experiment: inhibition of the proliferation of Jurkat cells (CellTiter-Glo); assay type: cell-based; details: Homo sapiens, 72 h, read-out: IC50, Jurkat cells proliferation
Procedure: As a control, cells were treated with DMSO alone. At t=0 and after 72 hours of culture, the number of living cells was determined using the CellTiter-Glo reagent. The inhibition of cellular proliferation is expressed as a percentage relative to DMSO-treated control wells. Presented results correspond to the mean ± SD of two independent experiments.
Jurkat cells were cultured in at 5.10+4 cells per well in flat-bottom 96-well culture dishes. […] Number of living cells was determined by quantification of adenosine triphosphate (ATP) in culture wells using the CellTiter-Glo Assay (Promega) following manufacturer's recommendations.

measles virus = experiment: microbe, parasite or virus in culture; details: Measles morbillivirus; for IC50: HEK-293T, read-out: IC50 on the measles virus
recombinant human DHODH = target: T1, recombinant human DHODH (Homo sapiens, UniProt Q02127); experiment: recombinant DHODH enzymatic assay (DCIP reduction); assay type: biochemical; details: 25°C, DCIP reduction at 600 nm
T1 construct: N-terminally truncated (first 29 amino acids) human DHODH; made in house; host or cells: E. coli BL21(DE3)/pDIA17
T1 sequence (Q02127 29-395): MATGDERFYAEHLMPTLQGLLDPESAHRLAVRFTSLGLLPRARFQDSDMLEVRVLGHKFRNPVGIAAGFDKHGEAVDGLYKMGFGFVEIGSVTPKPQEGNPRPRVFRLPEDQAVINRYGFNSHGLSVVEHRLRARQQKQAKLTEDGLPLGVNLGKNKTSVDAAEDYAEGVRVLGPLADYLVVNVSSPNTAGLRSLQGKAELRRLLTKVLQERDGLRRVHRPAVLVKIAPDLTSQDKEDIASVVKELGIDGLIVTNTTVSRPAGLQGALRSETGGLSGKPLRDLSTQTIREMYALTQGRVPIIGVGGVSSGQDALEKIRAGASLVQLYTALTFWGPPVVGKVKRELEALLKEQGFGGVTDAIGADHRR
Procedure: Enzymatic assay DHODH activity was determined at 25°C following the reduction of DCIP at 600 nm (ε = 18,800 M^-1 cm^-1) on a spectrophotometer. […] The reaction medium used for this contained 50 mM Tris-HCl pH 8.0, 0.1% Triton X-100, 0.1 mM L-DHO, 0.025 mM CoQ1 and 0.06 mM DCIP. The reaction was started by addition of the enzyme.

Compound	MIC50 (measles virus; 24 h) [µM]	further results
C/C(O)=C(\C#N)C(=O)Nc1ccc(C(F)(F)F)cc1 [Teriflunomide, reference compound]		IC50 (Jurkat cells): ~60000 nM; MIC50 (measles virus): 50 µM (≈ 13.5 µg/mL)
CCc1cnc(-n2nc(OC(C)C)c(Oc3c(F)cccc3F)c2C)nc1 [example 8, 2-(4-(2,6-difluorophenoxy)-3-isopropoxy-5-methyl-1H-pyrazol-1-yl)-5-ethylpyrimidine]	0.0005 to 0.05 (≈ 0.000187 to 0.0187 µg/mL)	IC50 (recombinant human DHODH): 13 ± 1 nM; IC50 (measles virus): 0.66 nM
Cc1c(Cc2ccccc2F)c(OC(C)C)nn1-c1ncc(C2CC2)cn1 [example 10, 5-cyclopropyl-2-(4-(2-fluorobenzyl)-3-isopropoxy-5-methyl-1H-pyrazol-1-yl)pyrimidine]	0.0005 to 0.05 (≈ 0.000183 to 0.0183 µg/mL)	IC50 (recombinant human DHODH): 13 ± 2 nM; IC50 (measles virus): 1.1 nM
Cc1c(Cc2ccccc2)c(OC(C)C)nn1-c1ccc(C2CC2)cn1 [example 20, 2-(4-benzyl-3-isopropoxy-5-methyl-1H-pyrazol-1-yl)-5-cyclopropylpyridine]	0.0005 to 0.05 (≈ 0.000174 to 0.0174 µg/mL)	IC50 (recombinant human DHODH): 130 ± 5 nM; IC50 (measles virus): 46 nM
CC(C)Oc1nn(-c2ncc(C3CC3)cn2)cc1Oc1ccccc1F [example 67, 5-cyclopropyl-2-(4-(2-fluorophenoxy)-3-isopropoxy-1H-pyrazol-1-yl)pyrimidine]	0.0005 to 0.05 (≈ 0.000177 to 0.0177 µg/mL)	IC50 (recombinant human DHODH): 48 ± 7 nM; IC50 (measles virus): 15 nM
CCOc1nn(-c2ncc(CC)cn2)c(C)c1Oc1ccccc1Br [example 81, 2-(4-(2-bromophenoxy)-3-ethoxy-5-methyl-1H-pyrazol-1-yl)-5-ethylpyrimidine]	0.05 to 0.5 (≈ 0.0202 to 0.202 µg/mL)	IC50 (recombinant human DHODH): 1150 ± 170 nM; IC50 (measles virus): 124 nM
c1ccc(-c2ccn(-c3ncc(C4CC4)cn3)n2)cc1 [example 122, 5-cyclopropyl-2-(3-phenyl-1H-pyrazol-1-yl)pyrimidine]	0.5 to 5 (≈ 0.131 to 1.31 µg/mL)	IC50 (recombinant human DHODH): 22800 ± 2800 nM; IC50 (measles virus): 3800 nM
Cc1c(C(O)c2ccccc2)c(OC(C)C)nn1-c1ncc(C2CC2)cn1 (stereo not shown) [example 176, (1-(5-cyclopropylpyrimidin-2-yl)-3-isopropoxy-5-methyl-1H-pyrazol-4-yl)(phenyl)methanol]	0.0005 to 0.05 (≈ 0.000182 to 0.0182 µg/mL)	IC50 (recombinant human DHODH): 16 ± 3 nM; IC50 (measles virus): 1.4 nM
CCOc1nn(-c2ccc(C3CC3)cn2)c(C)c1C(C)(O)c1ccccc1 (stereo not shown) [example 178, 1-(1-(5-cyclopropylpyridin-2-yl)-3-ethoxy-5-methyl-1H-pyrazol-4-yl)-1-phenylethanol]	0.5 to 5 (≈ 0.182 to 1.82 µg/mL)	
CC(C)Oc1nn(-c2ccc(C3CC3)cn2)cc1C(O)c1ccccc1 (stereo not shown) [example 179, (1-(5-cyclopropylpyridin-2-yl)-3-isopropoxy-1H-pyrazol-4-yl)(phenyl)methanol]	0.05 to 0.5 (≈ 0.0175 to 0.175 µg/mL)	
CC(C)Oc1nn(-c2ccc(C3CC3)cn2)cc1S(=O)(=O)c1ccccc1 [example 180, 5-cyclopropyl-2-(3-isopropoxy-4-(phenylsulfonyl)-1H-pyrazol-1-yl)pyridine]	0.05 to 0.5 (≈ 0.0192 to 0.192 µg/mL)	
CC(C)Oc1nn(-c2ccc(C3CC3)cn2)cc1[S+]([O-])c1ccccc1 (stereo not shown) [example 181, 5-cyclopropyl-2-(3-isopropoxy-4-(phenylsulfinyl)-1H-pyrazol-1-yl)pyridine]	0.5 to 5 (≈ 0.184 to 1.84 µg/mL)	
CC(C)Oc1nn(-c2ncc(C3CC3)cn2)cc1[S+]([O-])c1ccccc1 (stereo not shown) [example 182, 5-cyclopropyl-2-(3-isopropoxy-4-(phenylsulfinyl)-1H-pyrazol-1-yl)pyrimidine]	0.5 to 5 (≈ 0.184 to 1.84 µg/mL)	
CC(C)Oc1nn(-c2ncc(C3CC3)cn2)cc1S(=O)(=O)c1ccccc1 [example 183, 5-cyclopropyl-2-(3-isopropoxy-4-(phenylsulfonyl)-1H-pyrazol-1-yl)pyrimidine]	0.0005 to 0.05 (≈ 0.000192 to 0.0192 µg/mL)	
COc1cc(C2CC2)cnc1-n1cc(Oc2ccccc2)c(OC(C)C)n1 [example 184, 5-cyclopropyl-2-(3-isopropoxy-4-phenoxy-1H-pyrazol-1-yl)-3-methoxypyridine]	0.0005 to 0.05 (≈ 0.000183 to 0.0183 µg/mL)	
COc1cc(C2CC2)cnc1-n1cc(Oc2ccccc2F)c(OC(C)C)n1 [example 185, 5-cyclopropyl-2-(4-(2-fluorophenoxy)-3-isopropoxy-1H-pyrazol-1-yl)-3-methoxypyridine]	0.05 to 0.5 (≈ 0.0192 to 0.192 µg/mL)	
Cc1c(Oc2c(F)cccc2F)c(OC(C)C)nn1-c1ncc(C2CC2)cc1OCc1ccccc1 [example 186, 3-(benzyloxy)-5-cyclopropyl-2-(4-(2,6-difluorophenoxy)-3-isopropoxy-5-methyl-1H-pyrazol-1-yl)pyridine]	0.05 to 0.5 (≈ 0.0246 to 0.246 µg/mL)	
Cc1c(Oc2c(F)cccc2F)c(OC(C)C)nn1-c1ncc(C2CC2)cc1O [example 187, 5-cyclopropyl-2-(4-(2,6-difluorophenoxy)-3-isopropoxy-5-methyl-1H-pyrazol-1-yl)pyridin-3-ol]	0.0005 to 0.05 (≈ 0.000201 to 0.0201 µg/mL)	
Cc1c(Oc2c(O)cccc2F)c(OC(C)C)nn1-c1ncc(C2CC2)cc1O [example 188, 5-cyclopropyl-2-(4-(2-fluoro-6-hydroxyphenoxy)-3-isopropoxy-5-methyl-1H-pyrazol-1-yl)pyridin-3-ol]	0.0005 to 0.05 (≈ 0.0002 to 0.02 µg/mL)	
COc1cc(C2CC2)cnc1-n1nc(OC(C)C)c(Oc2c(F)cccc2F)c1C [example 189, 5-cyclopropyl-2-(4-(2,6-difluorophenoxy)-3-isopropoxy-5-methyl-1H-pyrazol-1-yl)-3-methoxypyridine]	0.0005 to 0.05 (≈ 0.000208 to 0.0208 µg/mL)	
Cc1c(Oc2c(F)cccc2F)c(OC(C)C)nn1-c1ncc(C2CC2)cc1N(C)C [example 190, 5-cyclopropyl-2-(4-(2,6-difluorophenoxy)-3-isopropoxy-5-methyl-1H-pyrazol-1-yl)-N,N-dimethylpyridin-3-amine]	0.0005 to 0.05 (≈ 0.000214 to 0.0214 µg/mL)	
CCCc1cnc(-n2nc(OC(C)C)c(Oc3c(F)cccc3F)c2C)c(F)c1 [example 190A, 2-(4-(2,6-difluorophenoxy)-3-isopropoxy-5-methyl-1H-pyrazol-1-yl)-3-fluoro-5-propylpyridine]	0.05 to 0.5 (≈ 0.0203 to 0.203 µg/mL)	
CC(C)Oc1nn(-c2ccc(C3CC3)cn2)c(Cl)c1Oc1ccccc1 [example 191, 2-(5-chloro-3-isopropoxy-4-phenoxy-1H-pyrazol-1-yl)-5-cyclopropylpyridine]	0.05 to 0.5 (≈ 0.0185 to 0.185 µg/mL)	
CC(C)Oc1nn(-c2ncc(C3CC3)cn2)c(Cl)c1Oc1ccccc1F [example 192, 2-(5-chloro-4-(2-fluorophenoxy)-3-isopropoxy-1H-pyrazol-1-yl)-5-cyclopropylpyrimidine]	0.0005 to 0.05 (≈ 0.000194 to 0.0194 µg/mL)	
CCc1cnc(-n2nc(OCCO)c(Cc3ccccc3)c2C)nc1 [example 193, 2-(4-benzyl-1-(5-ethylpyrimidin-2-yl)-5-methyl-1H-pyrazol-3-yloxy)ethanol]	0.05 to 0.5 (≈ 0.0169 to 0.169 µg/mL)	
